# Data taken from US20070010670A1, “Nitrogen-containing fused ring compounds and use thereof” (Japan Tobacco Inc., priority 2004, published 2007).
# Molecular target: T1, CYP2C9 (Homo sapiens, UniProt P11712)
# T1 construct: Human liver microsome (20 mg protein/mL, 5 μL, Xenotech LLC, purchased from Lenexa KS); tissue Xenotech LLC; host or cells: human liver microsome
# Experiment: CYP inhibitory test using human liver microsome
# Format: in vitro ADME
# Conditions: model substrate diclofenac, 37° C. 10 min, read-out: CYP2C9 inhibition IC50
# Method: Human liver microsome (20 mg protein/mL, 5 μL, Xenotech LLC, purchased from Lenexa KS) was suspended in 100 mM potassium phosphate buffer (70 μL, pH 7.4), mixed with a solution (0.5 μL) of the Example compound dissolved in DMSO and preincubated at 37° C. for 5 min. NADPH producing system coenzyme solution (β-nicotinamide adenine dinucleotide phosphate: 5.2 mM, D-glucose-6-phosphate: 13.2 mM, magnesium chloride: 13.2 mM, glucose-6-phosphate dehydrogenase: 1.8 U/mL) 25 μL, and a model substrate (CYP3A4: midazolam 1 mM, CYP2D6: bufuralol 1 mM, CYP2C9: diclofenac 2 mM) 0.5 μL dissolved in DMSO were added to start the reaction. After incubation at 37° C. for 10 min., acetonitrile (200 μL) containing an internal standard substance (propranolol 1 μM) was added and the mixture was centrifuged (room temperature, 3000 rpm, 20 min). The amount of the metabolite produced from each model substrate in the supernatant was measured by high performance liquid chromatography/mass spectrometry (LC/MS/MS) and each CYP enzyme activity was determined. The concentration showing 50% inhibition (IC50) was calculated relative to the enzyme activity without addition of Example compound (DMSO 0.5 μL added) as 100%.
# T1 sequence (P11712 whole entry): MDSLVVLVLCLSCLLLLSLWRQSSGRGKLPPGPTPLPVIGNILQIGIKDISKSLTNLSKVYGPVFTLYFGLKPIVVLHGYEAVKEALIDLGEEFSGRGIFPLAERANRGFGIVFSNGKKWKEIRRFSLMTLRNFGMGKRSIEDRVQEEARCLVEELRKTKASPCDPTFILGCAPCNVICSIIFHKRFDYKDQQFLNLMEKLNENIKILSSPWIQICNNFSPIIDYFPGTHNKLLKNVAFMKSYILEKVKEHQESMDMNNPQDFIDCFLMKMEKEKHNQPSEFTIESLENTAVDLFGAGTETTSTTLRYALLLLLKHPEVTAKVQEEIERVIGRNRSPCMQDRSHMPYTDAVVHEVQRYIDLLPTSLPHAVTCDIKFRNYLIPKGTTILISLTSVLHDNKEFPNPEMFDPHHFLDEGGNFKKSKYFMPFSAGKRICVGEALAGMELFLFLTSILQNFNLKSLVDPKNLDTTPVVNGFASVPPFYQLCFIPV
row,SMILES,IC50
1,"O=C(c1ccc(O)c(Cl)c1)N1CCOc2ccccc21 [Example 1, (3-chloro-4-hydroxyphenyl)-(2,3-dihydrobenzo[1,4]oxazin-4-yl)-methanone]",> 50 µM
2,"O=C(c1ccc(O)c(Br)c1)N1CCOc2ccccc21 [Example 2, (3-bromo-4-hydroxyphenyl)-(2,3-dihydrobenzo[1,4]oxazin-4-yl)-methanone]",37 µM
3,"O=C(c1cc(Cl)c(O)c(Cl)c1)N1CCOc2ccccc21 [Example 3, (3,5-dichloro-4-hydroxyphenyl)-(2,3-dihydrobenzo[1,4]oxazin-4-yl)-methanone]",27 µM
4,"O=C(c1cc(Br)c(O)c(Br)c1)N1CCOc2ccccc21 [Example 4, (3,5-dibromo-4-hydroxyphenyl)-(2,3-dihydrobenzo[1,4]oxazin-4-yl)-methanone]",9 µM
5,"O=C(c1cc(I)c(O)c(I)c1)N1CCOc2ccccc21 [Example 5, (2,3-dihydrobenzo[1,4]oxazin-4-yl)-(4-hydroxy-3,5-diiodophenyl)-methanone]",2 µM
6,"O=C(c1cc(F)c(O)c(F)c1)N1CCOc2ccccc21 [Example 6, (3,5-difluoro-4-hydroxyphenyl)-(2,3-dihydrobenzo[1,4]oxazin-4-yl)-methanone]",> 50 µM
7,"Cc1cc(C(=O)N2CCOc3ccccc32)cc(C)c1O [Example 7, (2,3-dihydrobenzo[1,4]oxazin-4-yl)-(4-hydroxy-3,5-dimethylphenyl)-methanone]",4 µM
8,"O=C(c1cc(Cl)c(O)c(Cl)c1)N1CCSc2ccccc21 [Example 8, (3,5-dichloro-4-hydroxyphenyl)-(2,3-dihydrobenzo[1,4]thiazin-4-yl)-methanone]",19 µM
9,"O=C(c1cc(Cl)c(O)c(Cl)c1)N1CCS(=O)(=O)c2ccccc21 [Example 10, (3,5-dichloro-4-hydroxyphenyl)-(1,1-dioxo-2,3-dihydro-1H-1λ^6-benzo[1,4]thiazin-4-yl)-methanone]",> 50 µM
10,"Oc1c(Cl)cc(C(=S)N2CCOc3ccccc32)cc1Cl [Example 11, (3,5-dichloro-4-hydroxyphenyl)-(2,3-dihydrobenzo[1,4]oxazin-4-yl)-methanethione]",12 µM
11,"Cc1ccc2c(c1)N(C(=O)c1cc(Cl)c(O)c(Cl)c1)CCO2 [Example 12, (3,5-dichloro-4-hydroxyphenyl)-(6-methyl-2,3-dihydrobenzo[1,4]oxazin-4-yl)-methanone]",22 µM
12,"Cc1ccc2c(c1)OCCN2C(=O)c1cc(Cl)c(O)c(Cl)c1 [Example 13, (3,5-dichloro-4-hydroxyphenyl)-(7-methyl-2,3-dihydrobenzo[1,4]oxazin-4-yl)-methanone]",18 µM
13,"Cc1cccc2c1N(C(=O)c1cc(Cl)c(O)c(Cl)c1)CCO2 [Example 14, (3,5-dichloro-4-hydroxyphenyl)-(5-methyl-2,3-dihydrobenzo[1,4]oxazin-4-yl)-methanone]",16 µM
14,"Cc1cccc2c1OCCN2C(=O)c1cc(Cl)c(O)c(Cl)c1 [Example 15, (3,5-dichloro-4-hydroxyphenyl)-(8-methyl-2,3-dihydrobenzo[1,4]oxazin-4-yl)-methanone]",6 µM
15,"O=C(c1cc(Cl)c(O)c(Cl)c1)N1CCOc2ccc3ccccc3c21 [Example 16, (3,5-dichloro-4-hydroxyphenyl)-(2,3-dihydronaphtho[2,1-b][1,4]oxazin-1-yl)-methanone]",10 µM
16,"COc1ccc2c(c1)N(C(=O)c1cc(Cl)c(O)c(Cl)c1)CCO2 [Example 17, (3,5-dichloro-4-hydroxyphenyl)-(6-methoxy-2,3-dihydrobenzo[1,4]oxazin-4-yl)-methanone]",33 µM
17,"COc1ccc2c(c1)OCCN2C(=O)c1cc(Cl)c(O)c(Cl)c1 [Example 18, (3,5-dichloro-4-hydroxyphenyl)-(7-methoxy-2,3-dihydrobenzo[1,4]oxazin-4-yl)-methanone]",9 µM
18,"O=C(c1cc(Cl)c(O)c(Cl)c1)N1CCOc2ccc(O)cc21 [Example 19, (3,5-dichloro-4-hydroxyphenyl)-(6-hydroxy-2,3-dihydrobenzo[1,4]oxazin-4-yl)-methanone]",> 50 µM
19,"O=C(c1cc(Cl)c(O)c(Cl)c1)N1CCOc2cc(O)ccc21 [Example 20, (3,5-dichloro-4-hydroxyphenyl)-(7-hydroxy-2,3-dihydrobenzo[1,4]oxazin-4-yl)-methanone]",13 µM
20,"CCN(CC)S(=O)(=O)c1ccc2c(c1)N(C(=O)c1cc(Cl)c(O)c(Cl)c1)CCO2 [Example 21, 4-(3,5-dichloro-4-hydroxybenzoyl)-3,4-dihydro-2H-benzo[1,4]oxazine-6-sulfonic acid diethylamide]",17 µM

row,SMILES,IC50
1,"O=S(=O)(c1cc(Cl)c(O)c(Cl)c1)N1CCOc2ccccc21 [Example 22, 2,6-dichloro-4-(2,3-dihydrobenzo[1,4]oxazine-4-sulfonyl)phenol]",1 µM
2,"CC(C)(C)c1ccc2c(c1)N(C(=O)c1cc(Cl)c(O)c(Cl)c1)CCO2 [Example 23, (6-tert-butyl-2,3-dihydrobenzo[1,4]oxazin-4-yl)-(3,5-dichloro-4-hydroxyphenyl)-methanone]",19 µM
3,"O=C1COc2ccccc2N1C(=O)c1cc(Cl)c(O)c(Cl)c1 [Example 24, 4-(3,5-dichloro-4-hydroxybenzoyl)-4H-benzo[1,4]oxazin-3-one]",> 50 µM
4,"NS(=O)(=O)c1ccc2c(c1)N(C(=O)c1cc(Cl)c(O)c(Cl)c1)CCO2 [Example 25, 4-(3,5-dichloro-4-hydroxybenzoyl)-3,4-dihydro-2H-benzo[1,4]oxazine-6-sulfonamide]",> 50 µM
5,"O=C(c1cc(Cl)c(O)c(Cl)c1)N1CCCc2ccccc21 [Example 26, (3,5-dichloro-4-hydroxyphenyl)-(3,4-dihydro-2H-quinolin-1-yl)-methanone]",13 µM
6,"O=C(c1cc(Cl)c(O)c(Cl)c1)N1CCCCc2ccccc21 [Example 27, (3,5-dichloro-4-hydroxyphenyl)-(2,3,4,5-tetrahydrobenzo[b]azepin-1-yl)-methanone]",21 µM
7,"O=C(c1cnc(O)c(Cl)c1)N1CCOc2ccccc21 [Example 29, (5-chloro-6-hydroxypyridin-3-yl)-(2,3-dihydrobenzo[1,4]oxazin-4-yl)-methanone]",> 50 µM
8,"O=C(c1cc([N+](=O)[O-])c(O)c([N+](=O)[O-])c1)N1CCOc2ccccc21 [Example 30, (2,3-dihydrobenzo[1,4]oxazin-4-yl)-(4-hydroxy-3,5-dinitrophenyl)-methanone]",> 50 µM
9,"O=C(c1cc(Cl)c(O)c([N+](=O)[O-])c1)N1CCOc2ccccc21 [Example 31, (3-chloro-4-hydroxy-5-nitrophenyl)-(2,3-dihydrobenzo[1,4]oxazin-4-yl)-methanone]",20 µM
10,"CC(C)c1cccc2c1OC(C(C)C)CN2C(=O)c1cc(Cl)c(O)c(Cl)c1 (stereo not shown) [Example 32, (3,5-dichloro-4-hydroxyphenyl)-(2,8-diisopropyl-2,3-dihydrobenzo[1,4]oxazin-4-yl)-methanone]",10 µM
11,"O=C(c1cc(Cl)c(O)c(Cl)c1)N1CCOc2ccc(S(=O)(=O)N3CCCC3)cc21 [Example 33, (3,5-dichloro-4-hydroxyphenyl)-[6-(pyrrolidine-1-sulfonyl)-2,3-dihydrobenzo[1,4]oxazin-4-yl]-methanone]",4 µM
12,"CCNS(=O)(=O)c1ccc2c(c1)N(C(=O)c1cc(Cl)c(O)c(Cl)c1)CCO2 [Example 34, 4-(3,5-dichloro-4-hydroxybenzoyl)-3,4-dihydro-2H-benzo[1,4]oxazine-6-sulfonic acid ethylamide]",11 µM
13,"CN(C)S(=O)(=O)c1ccc2c(c1)N(C(=O)c1cc(Cl)c(O)c(Cl)c1)CCO2 [Example 35, 4-(3,5-dichloro-4-hydroxybenzoyl)-3,4-dihydro-2H-benzo[1,4]oxazine-6-sulfonic acid dimethylamide]",14 µM
14,"O=C(c1cc(Cl)c(O)c(Cl)c1)N1CCOc2cccnc21 [Example 36, (3,5-dichloro-4-hydroxyphenyl)-(2,3-dihydropyrido[3,2-b][1,4]oxazin-4-yl)-methanone]",16 µM
15,"O=C1CCN(C(=O)c2cc(Cl)c(O)c(Cl)c2)c2ccccc2N1 [Example 37, 5-(3,5-dichloro-4-hydroxybenzoyl)-1,3,4,5-tetrahydrobenzo[b][1,4]diazepin-2-one]",> 50 µM
16,"O=C(c1cc(Cl)cc(Cl)c1O)N1CCOc2ccccc21 [Example 38, (3,5-dichloro-2-hydroxyphenyl)-(2,3-dihydrobenzo[1,4]oxazin-4-yl)-methanone]",5 µM
17,"O=C(c1ccc(O)c(C(F)(F)F)c1)N1CCOc2ccccc21 [Example 39, (2,3-dihydrobenzo[1,4]oxazin-4-yl)-(4-hydroxy-3-trifluoromethylphenyl)-methanone]",21 µM
18,"COc1cc(C(=O)N2CCOc3ccccc32)cc(Cl)c1O [Example 40, (3-chloro-4-hydroxy-5-methoxyphenyl)-(2,3-dihydrobenzo[1,4]oxazin-4-yl)-methanone]",> 50 µM
19,"O=C(c1ccc(Cl)c(O)c1)N1CCOc2ccccc21 [Example 41, (4-chloro-3-hydroxyphenyl)-(2,3-dihydrobenzo[1,4]oxazin-4-yl)-methanone]",> 50 µM
20,"O=C(c1cc(Cl)nc(Cl)c1)N1CCOc2ccccc21 [Example 42, (2,6-dichloropyridin-4-yl)-(2,3-dihydrobenzo[1,4]oxazin-4-yl)-methanone]",> 50 µM
